This is an account of results in PubChem BioAssay AID256 (DTP/NCI, 2004).

The test system of the experiment is CD2F1 mice, L1210 leukemia ip, survival T/C. The experiment can be described thus: NCI In Vivo Anticancer Drug Screen. Data for tumor model L1210 Leukemia (intraperitoneal) in CD2F1 (CDF1) mice. Particulars: endpoint: mean survival time, higher = longer survival. A digest of the protocol: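 Read-out first: treated-group measurement over vehicle-control measurement, expressed as a ratio. Animals bore a transplanted tumor line and were dosed with compound or vehicle.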

Setting [1] is: dose: 50.0 mg/kg/injection, schedule: Q01DX009 (ip), vehicle: saline with Tween-80.
[2] abbreviates: dose: 100.0 mg/kg/injection, schedule: Q01DX009 (ip), vehicle: saline with Tween-80.
Setting [3] is: dose: 200.0 mg/kg/injection, schedule: Q01DX009 (ip), vehicle: saline with Tween-80.
Setting [4] is: dose: 100.0 mg/kg/injection, schedule: Q01DX001 (ip), vehicle: other.
Where [5] appears, read: dose: 200.0 mg/kg/injection, schedule: Q01DX001 (ip), vehicle: other.
[6] abbreviates: dose: 400.0 mg/kg/injection, schedule: Q01DX001 (ip), vehicle: other.
Setting [7] is: dose: 25.0 mg/kg/injection, schedule: Q01DX009 (ip), vehicle: saline.
The mark [8] stands for this setting: dose: 50.0 mg/kg/injection, schedule: Q01DX009 (ip), vehicle: saline.
[9] abbreviates: dose: 100.0 mg/kg/injection, schedule: Q04DX003 (ip), vehicle: saline.
Where [10] appears, read: dose: 100.0 mg/kg/injection, schedule: Q04DX003 (ip), vehicle: saline with Tween-80.
Setting [11] is: dose: 200.0 mg/kg/injection, schedule: Q04DX003 (ip), vehicle: saline with Tween-80.
[12] abbreviates: dose: 400.0 mg/kg/injection, schedule: Q04DX003 (ip), vehicle: saline with Tween-80.
The mark [13] stands for this setting: dose: 100.0 mg/kg/injection, schedule: Q04DX002 (ip), vehicle: saline with Tween-80.
[14] abbreviates: dose: 200.0 mg/kg/injection, schedule: Q04DX002 (ip), vehicle: saline with Tween-80.
Setting [15] is: dose: 400.0 mg/kg/injection, schedule: Q04DX002 (ip), vehicle: saline with Tween-80.

Molecules are shown by their SMILES. Where “and” joins values, the source holds several entries; their conditions need not be identical. Equal entries are not always repeated. Toxic doses and inconclusive results are not listed.

On to `O=S(=O)(N1CCCCC1)N1CCNCC1`, for which the T/C was 98 % of control (dose: 5.0 mg/kg/injection, schedule: Q01DX009 (ip), vehicle: saline with Tween-80); 103 % of control (dose: 5.0 mg/kg/injection, schedule: Q04DX003 (ip), vehicle: saline with Tween-80); 98 % of control (dose: 10.0 mg/kg/injection, schedule: Q01DX009 (ip), vehicle: saline with Tween-80); 103 % of control (dose: 10.0 mg/kg/injection, schedule: Q04DX003 (ip), vehicle: saline with Tween-80); 96 % of control (dose: 20.0 mg/kg/injection, schedule: Q01DX009 (ip), vehicle: saline with Tween-80); 97 % of control (dose: 20.0 mg/kg/injection, schedule: Q04DX003 (ip), vehicle: saline with Tween-80).

On to `C[n+]1cnc2c(ccn2C2OC(CO)C(O)C2O)c1N` (stereo not drawn), for which the T/C is, setting by setting: (dose: 50.0 mg/kg/injection, schedule: Q01DX001 (ip), vehicle: saline) 102 % of control; (dose: 100.0 mg/kg/injection, schedule: Q01DX001 (ip), vehicle: saline) 100 % of control; (dose: 200.0 mg/kg/injection, schedule: Q01DX001 (ip), vehicle: saline) 102 % of control; (dose: 400.0 mg/kg/injection, schedule: Q01DX001 (ip), vehicle: saline) 100 % of control.

As for `CSCCC(NC(=O)CN)C(=O)O` (stereo not drawn), the T/C runs as follows: under setting [1], 96 % of control; under setting [2], 92 % of control; under setting [3], 100 % of control.

As for `CCCC(=O)c1cccc([N+](=O)[O-])c1`, the T/C by setting is: under setting [4], 96 % of control; (dose: 100.0 mg/kg/injection, schedule: Q04DX002 (ip), vehicle: other) 98 % of control; (dose: 100.0 mg/kg/injection, schedule: Q04DX003 (ip), vehicle: other) 103 % of control; under setting [5], 93 % of control; (dose: 200.0 mg/kg/injection, schedule: Q04DX002 (ip), vehicle: other) 100 % of control; (dose: 200.0 mg/kg/injection, schedule: Q04DX003 (ip), vehicle: other) 100 % of control. Moreover, the T/C under setting [6] is 94 % of control; the T/C (dose: 400.0 mg/kg/injection, schedule: Q04DX002 (ip), vehicle: other) was 98 % of control; the T/C (dose: 400.0 mg/kg/injection, schedule: Q04DX003 (ip), vehicle: other) was 101 % of control; the T/C (dose: 800.0 mg/kg/injection, schedule: Q01DX009 (ip), vehicle: other) was 91 % of control and 94 % of control and 95 % of control.

Regarding `CNc1nc(N)nc(CN2CCOCC2c2ccccn2)n1` (stereo not drawn), the T/C by setting is: (dose: 100.0 mg/kg/injection, schedule: Q04DX002 (ip), vehicle: saline) 88 % of control; (dose: 200.0 mg/kg/injection, schedule: Q04DX002 (ip), vehicle: saline) 114 % of control; (dose: 400.0 mg/kg/injection, schedule: Q04DX002 (ip), vehicle: saline) 96 % of control.

Consider `CN1CCCN(C)C1c1ccccc1`, for which the T/C by setting is: under setting [7], 97 % of control; under setting [8], 94 % of control; (dose: 100.0 mg/kg/injection, schedule: Q01DX009 (ip), vehicle: saline) 89 % of control; under setting [9], 104 % of control.

For `CC(C(=O)NN)C(O)C(C)(C)O` (stereo not drawn), the T/C reads like this: under setting [10], 96 % of control; under setting [11], 96 % of control; under setting [12], 103 % of control.

`CCNC(=S)NN`: under “dose: 12.5 mg/kg/injection, schedule: Q01DX009 (ip), vehicle: saline with Tween-80”, the T/C is 100 % of control.

Consider `O=C(/C=C(\C(=O)c1ccccc1)c1ccccc1)c1ccccc1`, for which the T/C runs as follows: under setting [1], 95 % of control; (dose: 50.0 mg/kg/injection, schedule: Q04DX003 (ip), vehicle: saline with Tween-80) 92 % of control; under setting [2], 96 % of control; under setting [10], 87 % of control; under setting [3], 101 % of control; under setting [11], 87 % of control.

For `Clc1cccc(-c2nc3ccccc3c3ccccc23)c1`, the T/C runs as follows: under setting [10], 93 % of control; under setting [12], 98 % of control.

On to `CCOC(=O)n1cnc2ncnc(SC)c21`, for which the T/C is, setting by setting: (dose: 50.0 mg/kg/injection, schedule: Q01DX001 (ip), vehicle: other) 95 % of control; (dose: 50.0 mg/kg/injection, schedule: Q01DX009 (ip), vehicle: other) 102 % of control; under setting [1], 109 % of control; under setting [4], 106 % of control; (dose: 100.0 mg/kg/injection, schedule: Q01DX009 (ip), vehicle: other) 102 % of control; under setting [2], 101 % of control. Besides, the T/C runs as follows: under setting [5], 102 % of control; (dose: 200.0 mg/kg/injection, schedule: Q01DX009 (ip), vehicle: other) 123 % of control; under setting [3], 91 % of control; under setting [6], 108 % of control; (dose: 400.0 mg/kg/injection, schedule: Q01DX009 (ip), vehicle: other) 121 % of control.

For the molecule `C#CC(C)O` (stereo not drawn), the T/C is 96 % of control under setting [7] and 89 % of control under setting [8].

For the molecule `O=NN(CCCl)C(=O)NC1CSCSC1`, the T/C (dose: 6.0 mg/kg/injection, schedule: Q01DX001 (ip), vehicle: saline with Tween-80) is 164 % of control; the T/C (dose: 9.0 mg/kg/injection, schedule: Q01DX001 (ip), vehicle: saline with Tween-80) is 297 % of control; the T/C (dose: 13.0 mg/kg/injection, schedule: Q01DX001 (ip), vehicle: saline with Tween-80) was 331 % of control; the T/C (dose: 20.0 mg/kg/injection, schedule: Q01DX001 (ip), vehicle: saline with Tween-80) is 352 % of control; the T/C (dose: 30.0 mg/kg/injection, schedule: Q01DX001 (ip), vehicle: saline with Tween-80) was 344 % of control.

With `C[N+]1(C)CC2CCCCC1C2=O` (stereo not drawn), the T/C is, setting by setting: (dose: 75.0 mg/kg/injection, schedule: Q01DX001 (ip), vehicle: saline) 111 % of control; (dose: 150.0 mg/kg/injection, schedule: Q01DX001 (ip), vehicle: saline) 101 % of control; (dose: 300.0 mg/kg/injection, schedule: Q01DX001 (ip), vehicle: saline) 98 % of control.

Turning to `CC(C)c1ccc2c(c1)CC[C@H]1[C@](C)(CN=C(N)CCl)CCC[C@]21C`, the T/C under setting [13] was 102 % of control and the T/C under setting [14] is 95 % of control.

As to `O=[N+]([O-])c1ccc(C2=CSc3ccccc3N2)cc1`, the T/C by setting is: under setting [13], 104 % of control; under setting [14], 108 % of control; under setting [15], 104 % of control.

For `CCN1CCC(CC)(CN2c3ccccc3Sc3ccc(Cl)cc32)C1` (stereo not drawn), the T/C runs as follows: under setting [9], 100 % of control; (dose: 200.0 mg/kg/injection, schedule: Q04DX003 (ip), vehicle: saline) 96 % of control.

With `Clc1nnc(-c2ccccc2)s1`, the T/C is, setting by setting: under setting [10], 101 % of control; under setting [11], 91 % of control.

Take `O=C(c1ccccc1)C1C(c2ccccc2)C2(CCCCC2=O)C(c2ccccc2)CC1(O)c1ccccc1` (stereo not drawn): under “dose: 100.0 mg/kg/injection, schedule: Q01DX001 (ip), vehicle: Klucel (hydroxypropylcellulose) (HPC)”, the T/C was 96 % of control.

Regarding `O=c1oc(/C=C/c2ccccc2)nc2ccccc12`, the T/C under setting [13] was 100 % of control, the T/C under setting [14] is 100 % of control and the T/C under setting [15] is 103 % of control.

As to `CCSc1ncnc2c1ncn2C1OC(CO)C(O)C1O` (stereo not drawn), the T/C (dose: 132.0 mg/kg/injection, schedule: Q04DX003 (ip), vehicle: saline with Tween-80) is 122 % of control and the T/C under setting [3] is 171 % of control.
